# Assay results taken from patent US20080051438A1, “Preventive/Therapeutic Compositions Useful for Treating Cardiovascular Diseases” (priority 2006, published 2008).
# Where “and” joins values, the source holds several entries; their conditions need not be identical. Equal entries are not always repeated. Marks after values point to notes of the source that are not given here.
# Key:
# Format in all cases: in vivo, human
# hypertensive patients [1] = assay: Special investigation of combined use of cilnidipine and ARB: occurrence of side-effects (safety analysis); conditions: for side-effect number of cases / side-effect number of examples: cilnidipine and ARB; for side-effect occurence rate (%): combined administration of cilnidipine and ARB
# Protocol: (§1) A special investigation was conducted in various medical centers, compiled, and analyzed to evaluate the safety and availability of the combined use of cilnidipine and at least one angiotensin II receptor blocker.
# The investigation was conducted mainly in the departments of internal medicine/cardiovascular diseases of various medical institutions. The target of the estimated collected cases was about 3000 cases.
# (§2) The subjects of the investigation were hypertensive patients which were adapted to cilnidipine. Combined administration of cilnidipine and ARB was started for the treatment of hypertension in these patients.
# (§3) A prospective continuous investigation method was conducted. Such a method is continuously conducted with the registered cases with the combined administration of cilnidipine (Atelec®) and ARB, until the number of cases reaches the contracted cases for each center.
# (§4) Regarding the administration method of cilnidipine, 5 to 10 mg of cilnidipine was orally administered after breakfast once a day. Meanwhile, the amount may increase or decrease depending on patient's age, symptoms, or the like. When the effect is insufficient, the amount can be increased to 20 mg once a day. The dosing period of cilnidipine was set to 12 weeks in principle.
# (§5) The following items were tracked during the investigation: patient's background (sex), existence or nonexistence of previous therapeutic agents and the content thereof, targeted blood pressure (systolic BP/diastolic BP), the conditions of administration of cilnidipine and ARB, antihypertensives used in combination (those other than cilnidipine or ARB), clinical course (systolic BP/diastolic BP/heart rate), and occurrence of side-effects. As for the availability of the combined administration, in the 12th week after starting the combined administration, the doctor in attendance judged the degree of the blood pressure controls on a three-point scale of “well-controlled”, “nearly well-controlled” and “poorly-controlled”, referring to the changes in the systolic and diastolic BP. As for the safety and availability analysis for each patient background, Fisher's exact probability test or the X^2 test was used. As for the blood pressure and heart rate, the average value and the standard deviation were calculated for the subjects before the combined administration (within 4 weeks before starting the combined administration), and data after starting the combined administration were determined on each observation day, and analysis was conducted by using a paired t-test. The test was conducted as the two-sided test and less than 5% of the risk rate was regarded as significant. Furthermore, side-effects were compiled based on the naming of preferred terms (PT) of MedDRA/J ver 8.0.
# The ratios of the cases wherein side-effects occurred were compared and examined between the sexes in the 2920 cases of the safety analysis (Table 5). […] The ratio thereof in a female group was 3.2% and that in a male group was 1.8%. […] The side-effects observed were mainly subjective symptoms such as headache, palpitation, and free-floating dizziness. Meanwhile, the ratio of the cases wherein the side-effects of these subjective symptoms occurred was low, and it is not a serious side-effect caused by the combined administration.
# hypertensive patients [2] = assay: Special investigation of combined use of cilnidipine and ARB: changes in systolic and diastolic blood pressure; conditions: only ARB, then cilnidipine singularly added; last measurement (222.03±143.88 days)
# hypertensive patients [3] = assay: Special investigation of combined use of cilnidipine and ARB: changes in heart rate; conditions: for heart rate after starting the combined administration / heart rate after starting the combined use: 12 weeks and later up to last measurement; for heart rate, aft. / heart rate, bef.: all availability cases; for heart rate, bef. use / heart rate, aft. use: only ARB
# Protocol: as §1, §2, §3, §4, §5
# Table 7 and FIG. 2 show the number of cases for which the blood pressure was measured, and the changes in the measured values of systolic BP, diastolic BP, and heart rate were measured at the following time points: before starting the combined administration, 4 weeks, 8 weeks, and 12 weeks after starting the combined administration, and the last measurement, which was 222.43 days in average from the start of the combined administration, n=2919). […] Then, it continued to slowly decrease, and the a stable change was seen up to 12 weeks after the start.
# hypertensive patients [4] = assay: Special investigation of combined use of cilnidipine and ARB: changes in systolic and diastolic blood pressure; conditions: for diastolic BP, aft. / systolic BP, aft. / diastolic BP, bef. / systolic BP, bef.: all availability cases; for diastolic BP, bef. use / systolic BP, bef. use / diastolic BP, aft. use / systolic BP, aft. use: only ARB
# Protocol: as §1, §2, §3, §4, §5
# Table 7 and FIG. 2 show the number of cases for which the blood pressure was measured, and the changes in the measured values of systolic BP, diastolic BP, and heart rate were measured at the following time points: before starting the combined administration, 4 weeks, 8 weeks, and 12 weeks after starting the combined administration, and the last measurement, […] administration, n=2919). […] Then, it continued to slowly decrease, and the a stable change was seen up to 12 weeks after the start.
# [5] = all availability cases with heart rate 75 or higher and less than 85 beats/min. before combined use
# [6] = all availability cases with heart rate 85 beats/min. or higher before combined use
# [7] = cilnidipine + ARB, 4 wks after use
# [8] = cilnidipine + ARB, 8 wks after use
# [9] = cilnidipine + ARB, 12 wks after use
# [10] = cilnidipine + ARB, last measurement (222.43 days in average)
# [11] = only ARB then cilnidipine added, cases with heart rate 75 or higher and less than 85 beats/min. before combined use
# [12] = only ARB then cilnidipine added, cases with heart rate 85 beats/min. or higher before combined use
# [13] = then cilnidipine singularly added, 4 wks after the use
# [14] = then cilnidipine singularly added, 8 wks after the use
# [15] = then cilnidipine singularly added, 12 wks after the use
# [16] = then cilnidipine singularly added, last measurement (222.03±143.88 days)
# [17] = cilnidipine + ARB, before combined use, 2,586 cases
# [18] = value before combined use of the 840 cases measured at 8 wks
# [19] = value before combined use of the 950 cases measured at 12 wks
# [20] = value before combined use of the 1,131 cases measured at 4 wks
# [21] = value before combined use of the 2,565 cases with last measurement
# [22] = then cilnidipine added, value before combined use of the 338 cases measured at 8 wks
# [23] = then cilnidipine added, value before combined use of the 360 cases measured at 12 wks
# [24] = then cilnidipine added, value before combined use of the 453 cases measured at 4 wks
# [25] = then cilnidipine added, value before combined use of the 1,047 cases with last measurement
# [26] = then cilnidipine singularly added, before combined use, 1,055 cases
structure (smiles),measurement,setting,value
"COCCOC(=O)C1=C(C)NC(C)=C(C(=O)OC/C=C/c2ccccc2)C1c1cccc([N+](=O)[O-])c1 (racemic) [cilnidipine, 2-methoxyethyl-3-phenyl-2(E)-propenyl(±)-1,4-dihydro-2,6-dimethyl-4-(3-nitrophenyl)-3,5-pyridinedicarboxylate]",ratio of the cases wherein side-effects occurred,hypertensive patients [1]; cases on ARB alone to which cilnidipine was additionally administered,low
same,side-effect number of cases,"hypertensive patients [1]; female group, 1,481 cases",56
same,side-effect number of examples,"hypertensive patients [1]; female group, 1,481 cases",47
same,side-effect occurence rate (%),"hypertensive patients [1]; female group, 1,481 cases",3.2% and 3.17%
same,side-effect number of cases,"hypertensive patients [1]; male group, 1,416 cases",32
same,side-effect number of examples,"hypertensive patients [1]; male group, 1,416 cases",26
same,side-effect occurence rate (%),"hypertensive patients [1]; male group, 1,416 cases",1.8% and 1.84%
same,side-effect number of cases,"hypertensive patients [1]; sex unknown, 23 cases",0
same,side-effect number of examples,"hypertensive patients [1]; sex unknown, 23 cases",0
same,side-effect occurence rate (%),"hypertensive patients [1]; sex unknown, 23 cases",0%
same,"systolic BP, aft. use",hypertensive patients [2],139.73 ± 15.77^b mmHg
same,heart rate before starting the combined use,hypertensive patients [3]; [5],79.19±2.73 beats/min.
same,heart rate after starting the combined administration,hypertensive patients [3]; [5],76.28±8.93 beats/min.
same,heart rate before starting the combined use,hypertensive patients [3]; [6],93.48±7.28 beats/min.
same,heart rate after starting the combined administration,hypertensive patients [3]; [6],84.57±11.17 beats/min.
same,"heart rate, aft.",hypertensive patients [3]; [7],73.80 ± 10.80 beat/min.
same,"heart rate, aft.",hypertensive patients [3]; [8],72.87 ± 10.53 beat/min.
same,"heart rate, aft.",hypertensive patients [3]; [9],73.61 ± 10.57 beat/min.
same,"heart rate, bef.","hypertensive patients [3]; cilnidipine + ARB, before combined use, 1,815 cases",75.40 ± 11.47 beat/min.
same,"heart rate, aft.",hypertensive patients [3]; [10],73.18 ± 10.37 beat/min.
same,"heart rate, bef.",hypertensive patients [3]; value before combined use of the 557 cases measured at 8 wks,73.83 ± 10.49 beat/min.
same,"heart rate, bef.",hypertensive patients [3]; value before combined use of the 664 cases measured at 12 wks,75.33 ± 10.98 beat/min.
same,"heart rate, bef.",hypertensive patients [3]; value before combined use of the 765 cases measured at 4 wks,75.06 ± 11.46 beat/min.
same,"heart rate, bef.","hypertensive patients [3]; value before combined use of the 1,615 cases with last measurement",75.18 ± 11.30 beat/min.
same,heart rate before starting the combined use,hypertensive patients [3]; [11],79.24±2.71 beats/min.
same,heart rate after starting the combined use,hypertensive patients [3]; [11],76.87±8.37 beats/min.
same,heart rate before starting the combined use,hypertensive patients [3]; [12],93.64±6.90 beats/min.
same,heart rate after starting the combined use,hypertensive patients [3]; [12],84.30±10.58 beats/min.
same,"heart rate, bef. use","hypertensive patients [3]; then cilnidipine added, value before combined use of the 229 cases measured at 8 wks",72.97 ± 10.16 beat/min.
same,"heart rate, bef. use","hypertensive patients [3]; then cilnidipine added, value before combined use of the 249 cases measured at 12 wks",73.98 ± 10.44 beat/min.
same,"heart rate, bef. use","hypertensive patients [3]; then cilnidipine added, value before combined use of the 308 cases measured at 4 wks",73.40 ± 10.54 beat/min.
same,"heart rate, bef. use","hypertensive patients [3]; then cilnidipine added, value before combined use of the 648 cases with last measurement",74.26 ± 10.58 beat/min.
same,"heart rate, aft. use",hypertensive patients [3]; [13],72.49 ± 10.25^a beat/min.
same,"heart rate, aft. use",hypertensive patients [3]; [14],72.62 ± 10.60 beat/min.
same,"heart rate, aft. use",hypertensive patients [3]; [15],72.54 ± 10.28^a beat/min.
same,"heart rate, bef. use","hypertensive patients [3]; then cilnidipine singularly added, before combined use, 738 cases",74.46 ± 10.76 beat/min.
same,"heart rate, aft. use",hypertensive patients [3]; [16],73.24 ± 10.51^a beat/min.
same,"diastolic BP, aft.",hypertensive patients [4]; [7],80.44 ± 11.30 mmHg
same,"systolic BP, aft.",hypertensive patients [4]; [7],144.31 ± 16.64 mmHg
same,"diastolic BP, aft.",hypertensive patients [4]; [8],78.69 ± 10.99 mmHg
same,"systolic BP, aft.",hypertensive patients [4]; [8],142.28 ± 17.41 mmHg
same,"diastolic BP, aft.",hypertensive patients [4]; [9],78.64 ± 11.39 mmHg
same,"systolic BP, aft.",hypertensive patients [4]; [9],140.57 ± 16.45 mmHg
same,"diastolic BP, bef.",hypertensive patients [4]; [17],89.49 ± 13.09 mmHg
same,"systolic BP, bef.",hypertensive patients [4]; [17],162.21 ± 19.21 mmHg
same,"diastolic BP, aft.",hypertensive patients [4]; [10],78.78 ± 10.68 mmHg
same,"systolic BP, aft.",hypertensive patients [4]; [10],139.67 ± 16.47 mmHg
same,"diastolic BP, bef.",hypertensive patients [4]; [18],88.22 ± 13.53 mmHg
same,"systolic BP, bef.",hypertensive patients [4]; [18],161.13 ± 18.47 mmHg
same,"diastolic BP, bef.",hypertensive patients [4]; [19],88.56 ± 13.48 mmHg
same,"systolic BP, bef.",hypertensive patients [4]; [19],161.63 ± 18.58 mmHg
same,"diastolic BP, bef.",hypertensive patients [4]; [20],88.80 ± 12.94 mmHg
same,"systolic BP, bef.",hypertensive patients [4]; [20],161.96 ± 19.46 mmHg
same,"diastolic BP, bef.",hypertensive patients [4]; [21],89.51 ± 13.09 mmHg
same,"systolic BP, bef.",hypertensive patients [4]; [21],162.19 ± 19.11 mmHg
same,"diastolic BP, bef. use",hypertensive patients [4]; [22],90.63 ± 13.13 mmHg
same,"systolic BP, bef. use",hypertensive patients [4]; [22],162.45 ± 16.04 mmHg
same,"diastolic BP, bef. use",hypertensive patients [4]; [23],90.26 ± 12.40 mmHg
same,"systolic BP, bef. use",hypertensive patients [4]; [23],161.92 ± 15.66 mmHg
same,"diastolic BP, bef. use",hypertensive patients [4]; [24],90.72 ± 12.00 mmHg
same,"systolic BP, bef. use",hypertensive patients [4]; [24],163.61 ± 15.91 mmHg
same,"diastolic BP, bef. use",hypertensive patients [4]; [25],91.31 ± 11.47 mmHg
same,"systolic BP, bef. use",hypertensive patients [4]; [25],163.11 ± 16.40 mmHg
same,"diastolic BP, aft. use",hypertensive patients [4]; [13],81.47 ± 10.51^b mmHg
same,"systolic BP, aft. use",hypertensive patients [4]; [13],143.91 ± 15.39^b mmHg
same,"diastolic BP, aft. use",hypertensive patients [4]; [14],79.75 ± 10.37^b mmHg
same,"systolic BP, aft. use",hypertensive patients [4]; [14],140.97 ± 15.94^b mmHg
same,"diastolic BP, aft. use",hypertensive patients [4]; [15],79.71 ± 11.23^b mmHg
same,"systolic BP, aft. use",hypertensive patients [4]; [15],140.09 ± 15.37^b mmHg
same,"diastolic BP, bef. use",hypertensive patients [4]; [26],91.26 ± 11.48 mmHg
same,"systolic BP, bef. use",hypertensive patients [4]; [26],163.09 ± 16.36 mmHg
same,"diastolic BP, aft. use",hypertensive patients [4]; [16],79.68 ± 10.68^b mmHg
